Laboratory results from patent US20130217678A1, “PHARMACEUTICAL AGENT COMPRISING QUINOLONE COMPOUND” (OTSUKA PHARMACEUTICAL CO., LTD., priority 2008, published 2013).

| Compound | melting point [°C] |
| --- | --- |
| CCCOc1ccc(OC)c2c(=O)c(-c3ccccc3OC)c[nH]c12 [Example 40, 5-Methoxy-3-(2-methoxyphenyl)-8-propoxy-1H-quinolin-4-one] | 239 to 241 |
| CCOc1ccc(OCC)c2c(=O)c(-c3ccc(OC)cc3)c[nH]c12 [Example 25, 5,8-Diethoxy-3-(4-methoxyphenyl)-1H-quinolin-4-one] | 182 to 183 |
| CCCOc1cccc2c(=O)c(-c3ccncc3)c[nH]c12 [Example 15, 8-Propoxy-3-pylidine-4-yl-1H-quinolin-4-one] | 259 to 260 |
| CCCOc1cccc2c(=O)c(-c3ccc(Cl)cc3Cl)c[nH]c12 [Example 27, 3-(2,4-Dichlorophenyl)-8-propoxy-1H-quinolin-4-one] | 189 |
| CCCOc1ccc(CC)c2c(=O)c(-c3ccc(OC)cc3)c[nH]c12 [Example 49, 5-Ethyl-3-(4-methoxyphenyl)-8-propoxy-1H-quinolin-4-one] | 169 to 170 |
| CCCOc1cccc2c(=O)c(-c3ccc(F)cc3Cl)c[nH]c12 [Example 29, 3-(2-Chloro-4-fluorophenyl)-8-propoxy-1H-quinolin-4-one] | 230 |
| CCCOc1ccc(OC)c2c(=O)c(-c3cc(OC)ccc3OC)c[nH]c12 [Example 43, 3-(2,5-Dimethoxyphenyl)-5-methoxy-8-propoxy-1H-quinolin-4-one] | 179 to 180 |
| CCCOc1cccc2c(=O)c(-c3ccccc3OC)c[nH]c12 [Example 39, 3-(2-Methoxyphenyl)-8-propoxy-1H-quinolin-4-one] | 218 to 220 |
| CCCOc1cccc2c(=O)c(-c3c(F)cccc3Cl)c[nH]c12 [Example 30, 3-(2-Chloro-6-fluorophenyl)-8-propoxy-1H-quinolin-4-one] | 250 |
| CCCOc1cccc2c(=O)c(-c3ccc(OC)c(OC)c3)c[nH]c12 [Example 14, 3-(3,4-Dimethoxyphenyl)-8-propoxy-1H-quinolin-4-one] | 210 to 211 |
| COc1ccc(-c2c[nH]c3c(OCC(C)C)ccc(OC)c3c2=O)cc1 [Example 47, 8-Isobutoxy-5-methoxy-3-(4-methoxyphenyl)-1H-quinolin-4-one] | 242 to 244 |
| CCCOc1cc(C)cc2c(=O)c(-c3ccc(OC)cc3)c[nH]c12 [Example 36, 3-(4-Methoxyphenyl)-6-methyl-8-propoxy-1H-quinolin-4-one] | 161 to 162 |
| CCOc1cc(NC(=O)c2ccccc2)c(OCC)c2c(=O)c(-c3ccc(OC)cc3)c[nH]c12 [Example 35, N-[5,8-Diethoxy-3-(4-methoxyphenyl)-4-oxo-1,4-dihydroquinolin-6-yl]-benzamide] | 120 to 121 |
| COCCN(C)c1ccc(C)c2c(=O)c(-c3ccc(OC)cc3)c[nH]c12.Cl | 90 to 93 |
| CCCOc1cccc2c(=O)c(-c3c(F)c(F)c(F)c(F)c3F)c[nH]c12 [Example 33, 3-Pentafluorophenyl-8-propoxy-1H-quinolin-4-one] | 160 |
| CCCOc1ccc(C)c2c(=O)c(-c3ccccc3OC)c[nH]c12 [Example 52, 3-(2-Methoxyphenyl)-5-methyl-8-propoxy-1H-quinolin-4-one] | 221 to 223 |
| CCCOc1cccc2c(=O)c(-c3ccc(OC)cc3C)c[nH]c12 [Example 19, 3-(4-Methoxy-2-methylphenyl)-8-propoxy-1H-quinolin-4-one] | 214 to 215 |
| CCCOc1cccc2c(=O)c(-c3cccc(OC)c3OC)c[nH]c12 [Example 41, 3-(2,3-Dimethoxyphenyl)-8-propoxy-1H-quinolin-4-one] | 253 to 255 |
| CCCOc1cccc2c(=O)c(-c3cc(OC)ccc3OC)c[nH]c12 [Example 31, 3-(2,5-Dimethoxyphenyl)-8-propoxy-1H-quinolin-4-one] | 175 |
| CCCOc1ccc(OC)c2c(=O)c(-c3cccc(OC)c3OC)c[nH]c12 [Example 42, 3-(2,3-Dimethoxyphenyl)-5-methoxy-8-propoxy-1H-quinolin-4-one] | 145 to 148 |

Continued, values first:

| melting point [°C] | Compound |
| --- | --- |
| 213 to 215 | COc1ccc(-c2c[nH]c3c(OC4CCCC4)ccc(OC)c3c2=O)cc1 [Example 93, 8-Cyclopentyloxy-5-methoxy-3-(4-methoxyphenyl)-1H-quinolin-4-one] |
| 236 to 237 | CCCOc1cc(-n2ccnc2)cc2c(=O)c(-c3ccc(OC)cc3)c[nH]c12 [Example 85, 6-Imidazol-1-yl-3-(4-methoxyphenyl)-8-propoxy-1H-quinolin-4-one] |
| 189 to 190 | COc1ccc(-c2c[nH]c3c(-c4ccsc4)ccc(C)c3c2=O)cc1 [Example 97, 3-(4-Methoxyphenyl)-5-methyl-8-thiophen-3-yl-1H-quinolin-4-one] |
| 159 to 161 | CCCN(C)c1ccc(C)c2c(=O)c(-c3ccc(OC)cc3)c[nH]c12 [Example 72, 3-(4-Methoxyphenyl)-5-methyl-8-(methyl-propyl-amino)-1H-quinolin-4-one] |
| 104 to 105 | CCCOc1ccc(C)c2c(=O)c(-c3cccs3)c[nH]c12 [Example 61, 5-Methyl-8-propoxy-3-thiophen-2-yl-1H-quinolin-4-one] |
| 237 to 239 | COc1ccc(-c2c[nH]c3c(OC4CCCC4)ccc(C)c3c2=O)cc1 [Example 91, 8-Cyclopentyloxy-3-(4-methoxyphenyl)-5-methyl-1H-quinolin-4-one] |
| 249 to 250 | COc1ccc(-c2c[nH]c3c(N4CCCCCC4)ccc(C)c3c2=O)cc1 [Example 84, 8-Azepan-1-yl-3-(4-methoxyphenyl)-5-methyl-1H-quinolin-4-one] |
| 193 to 195 | COc1ccc(-c2c[nH]c3c(C(=O)N4CCCC4)ccc(C)c3c2=O)cc1 [Example 90, 3-(4-Methoxyphenyl)-5-methyl-8-(pyrrolidine-1-carbonyl)-1H-quinolin-4-one] |
| 154 to 155 | O=c1c(-c2ccc(Cl)cc2Cl)c[nH]c2c(OC3CCCC3)ccc(O)c12 [Example 106, 8-Cyclopentyloxy-3-(2,4-dichlorophenyl)-5-hydroxy-1H-quinolin-4-one] |
| 90 to 92 | CCCOc1ccc(C)c2c(=O)c(-c3sc4ccccc4c3C)c[nH]c12 [Example 66, 5-Methyl-3-(3-methylbenzo[b]thiophen-2-yl)-8-propoxy-1H-quinolin-4-one] |
| 81 to 84 | CCCOc1cccc2c(=O)c(-c3cccc(-c4ccc(OC)cc4OC)c3)c[nH]c12 [Example 56, 3-(2′,4′-Dimethoxybiphenyl-3-yl)-8-propoxy-1H-quinolin-4-one] |
| 191 to 192 | CCCOc1ccc(C)c2c(=O)c(-c3ccc(OC)cc3OCC)c[nH]c12 [Example 78, 3-(2-Ethoxy-4-methoxyphenyl)-5-methyl-8-propoxy-1H-quinolin-4-one] |
| 212 to 214 | COc1ccc(-c2c[nH]c3c(OCC4CC4)ccc(OC)c3c2=O)cc1 [Example 88, 8-Cyclopropylmethoxy-5-methoxy-3-(4-methoxyphenyl)-1H-quinolin-4-one] |
| 198 to 199 | COc1ccc(-c2c[nH]c3c(OCC4CC4)ccc(C)c3c2=O)c(F)c1 [Example 79, 8-Cyclopropylmethoxy-3-(2-fluoro-4-methoxyphenyl)-5-methyl-1H-quinolin-4-one] |
| 189 to 193 | CCCOc1cccc2c(=O)c(-c3cccc(-c4ccc(C)cc4)c3)c[nH]c12 [Example 59, 3-(4′-Methylbiphenyl-3-yl)-8-propoxy-1H-quinolin-4-one] |
| 232 to 234 | CCOc1ccc(OCC)c2c(=O)c(-c3ccc(F)cc3)c[nH]c12 [Example 94, 5,8-Diethoxy-3-(4-fluorophenyl)-1H-quinolin-4-one] |
| 158 to 160 | COc1ccc(-c2c[nH]c3c(C(=O)N(C)C)ccc(C)c3c2=O)cc1 [Example 89, 3-(4-Methoxyphenyl)-5-methyl-4-oxo-1,4-dihydroquinolin-8-carboxylic acid dimethylamide] |
| 107 to 108 | CCCOc1cccc2c(=O)c(-c3cccc(Br)c3)c[nH]c12 [Example 55, 3-(3-Bromophenyl)-8-propoxy-1H-quinolin-4-one] |
| 254 to 256 | COc1ccc(OCC2CC2)c2[nH]cc(-c3ccc(Cl)cc3Cl)c(=O)c12 [Example 105, 8-Cyclopropylmethoxy-3-(2,4-dichlorophenyl)-5-methoxy-1H-quinolin-4-one] |
| 111 to 113 | COc1ccc(-c2c[nH]c3c(N(C)CC(C)C)ccc(C)c3c2=O)cc1 [Example 102, 8-(N-Isobutyl-N-methyl-amino)-3-(4-methoxyphenyl)-5-methyl-1H-quinolin-4-one] |
| 106 to 109 | CCCOc1ccc(C)c2c(=O)c(-c3cn(C)c4ccccc34)c[nH]c12 [Example 62, 5-Methyl-3-(1-methyl-1H-indol-3-yl)-8-propoxy-1H-quinolin-4-one] |
| 258 to 260 | CCc1nccn1-c1ccc(C)c2c(=O)c(-c3ccc(OC)cc3)c[nH]c12 [Example 71, 8-(2-Ethylimidazol-1-yl)-3-(4-methoxyphenyl)-5-methyl-1H-quinolin-4-one] |
| 156 to 158 | CCCOc1ccc(C)c2[nH]cc(-c3ccc(OC)cc3)c(=O)c12 [Example 80, 3-(4-Methoxyphenyl)-8-methyl-5-propoxy-1H-quinolin-4-one] |
| 170 to 171 | CCCOc1ccc(C)c2c(=O)c(-c3cccc(OC)c3OC)c[nH]c12 [Example 53, 3-(2,3-Dimethoxyphenyl)-5-methyl-8-propoxy-1H-quinolin-4-one] |
| 163 to 165 | O=c1c(-c2ccc(Cl)cc2Cl)c[nH]c2c(OCC3CC3)ccc(O)c12 [Example 107, 8-Cyclopropylmethoxy-3-(2,4-dichlorophenyl)-5-hydroxy-1H-quinolin-4-one] |
| 186 to 187 | COc1ccc(-c2c[nH]c3c(N(C)C4CCCCC4)ccc(C)c3c2=O)cc1 [Example 99, 8-(N-Cyclohexyl-N-methylamino)-3-(4-methoxyphenyl)-5-methyl-1H-quinolin-4-one] |
| 186 to 188 | CCCCc1ccc(C)c2c(=O)c(-c3ccc(OC)cc3)c[nH]c12 [Example 76, 8-Butyl-3-(4-methoxyphenyl)-5-methyl-1H-quinolin-4-one] |
